Assay results reported in US8921351B2, “Liquid crystalline phytosterol-glycerine complex for enhanced bioavailability and water dispersal” (Brandeis University, priority 2012, dated 2014).
Blank lines part the entries; values can stand above or below the molecule they belong to.

Legend:
[1] = Saturation uptake of glycerine into melted non-esterified phytosterols; type: physicochemical
Experimental: An experiment was conducted to determine the “saturation uptake” level during the chemical interaction between phytosterols and glycerine, The saturation uptake level can be either an adsorption phenomenon or a solubility phenomenon. First, the saturation level of glycerine uptake into non-esterified phytosterols was determined Mixed phytosterols that had been purified from soybean oil, and containing principally beta-sitosterol, campesterol and stigmasterol (CoroWise® FG-50), were heated, […] Increasing levels of glycerine (approximately 5, 10, 20 and 25 parts by weight) could be adsorbed or dissolved in 100 parts by weight of heated and melted free phytosterols. The evidence for adsorption (or solubility) was that a single melted phase of liquid was visible in heated glass test tubes containing these mixtures, whereas when larger amounts of glycerine were added, the glycerine formed a separate clear phase beneath the melted phytosterols. Upon cooling and solidification of the phytosterol samples containing between approximately 5 and 25 parts by weight of glycerine, the resulting solids were dry to the touch with no apparent free glycerine liquid. […]

[2] = cited from earlier work
[3] = Mutual solubility of phytosterols with glycerine or propylene glycol at 150° C.; type: physicochemical
Text: It was discovered that a substantial amount of glycerine can be combined with phytosterol to form a complex (up to approximately 20% glycerine based on the weight of phytosterol). This was surprising given that glycerine is a low molecular weight hydrophilic substance whereas phytosterols (e.g., beta-sitosterol, campesterol and stigmasterol) are highly hydrophobic substances. […] The question arose, why can 20% glycerine dissolve into melted phytosterols when a small amount of phytosterol will not dissolve into glycerine. […] For example, equal weight percentages of these ingredients dissolve easily in one another.

- saturation level of glycerine relative to phytosterols [1]: ~20 % by weight
- solubility limit (saturation level) of glycerine in melted phytosterols ([1]; phytosterols melted at approximately 135° C.): about 25 g per 100 g phytosterols
Structure (SMILES): OCC(O)CO [glycerine]

Structure (SMILES): CCCCCO [n-amyl alcohol]
- solubility limit in water [2]: 2.7 g per 100 g water

- miscibility of propylene glycol and phytosterols [3]: substantially miscible
Structure (SMILES): CC(O)CO (stereo not shown) [propylene glycol]
